Values of other authors, collected in patent publication US20070071815A1 (priority 2004, published 2007).

- half-life of creatine in blood plasma: 1 to 1.5 h
Structure (SMILES): CN(CC(=O)O)C(=N)N [creatine, N-(aminoiminomethyl)-N-methylglycine]
